Reference: US12552770B2, “Compounds for treating respiratory disease” (TMEM16A Limited, priority 2020, dated 2026)
pEC50: −log10 of the molar value.

Molecular target: T1, human TMEM16A (TMEM16Aabc variant) (Homo sapiens, UniProt Q5XXA6, DEL476-501)
T1 sequence (Q5XXA6 with tags, fused parts or gaps isoform Q5XXA6-5 DEL539-564): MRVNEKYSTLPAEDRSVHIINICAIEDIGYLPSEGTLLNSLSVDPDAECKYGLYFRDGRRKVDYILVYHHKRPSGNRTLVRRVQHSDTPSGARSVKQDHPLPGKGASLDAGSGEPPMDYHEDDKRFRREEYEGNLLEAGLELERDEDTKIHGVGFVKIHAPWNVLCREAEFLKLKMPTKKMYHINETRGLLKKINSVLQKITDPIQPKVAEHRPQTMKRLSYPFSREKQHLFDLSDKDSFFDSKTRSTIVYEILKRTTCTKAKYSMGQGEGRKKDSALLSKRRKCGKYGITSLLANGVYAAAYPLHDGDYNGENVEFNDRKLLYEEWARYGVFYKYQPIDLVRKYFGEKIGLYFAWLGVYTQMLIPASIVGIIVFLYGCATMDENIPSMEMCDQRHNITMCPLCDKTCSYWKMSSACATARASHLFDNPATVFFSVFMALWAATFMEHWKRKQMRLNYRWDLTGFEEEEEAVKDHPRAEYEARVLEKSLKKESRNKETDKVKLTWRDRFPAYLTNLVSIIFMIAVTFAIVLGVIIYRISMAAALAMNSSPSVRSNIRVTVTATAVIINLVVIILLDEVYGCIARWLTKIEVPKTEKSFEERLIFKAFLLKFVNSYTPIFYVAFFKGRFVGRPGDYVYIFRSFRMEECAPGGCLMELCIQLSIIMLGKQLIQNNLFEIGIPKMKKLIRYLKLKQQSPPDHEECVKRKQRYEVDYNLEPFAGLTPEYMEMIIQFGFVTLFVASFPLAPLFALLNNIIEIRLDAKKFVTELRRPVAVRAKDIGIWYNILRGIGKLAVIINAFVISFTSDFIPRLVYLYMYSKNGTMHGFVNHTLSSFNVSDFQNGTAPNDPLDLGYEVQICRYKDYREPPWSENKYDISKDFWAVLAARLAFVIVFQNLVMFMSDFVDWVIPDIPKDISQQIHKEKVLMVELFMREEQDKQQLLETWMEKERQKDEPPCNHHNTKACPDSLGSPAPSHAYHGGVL
Assay: Automated whole-cell patch clamp (Qpatch) TMEM16A potentiator assay in recombinant cells
Type: cell-based
Conditions: FRT cells stably expressing human TMEM16A, intracellular calcium at EC20; for % Potentiation @ 3.33 μM Avg: 3.33 μM solution of test compound, percentage increase of baseline TMEM16A current, peak current at +70 mV; for pEC50: calculated from cumulative concentration response curve, whole-cell patch clamp
Method: Automated Whole-Cell Patch Clamp Assay to Detect TMEM16A Activity in Recombinant Cells
Cell Culture and Preparation
Fisher rat thyroid (FRT) cells stably expressing human TMEM16A (TMEM16Aabc variant; Dr Luis Galietta, Insituto Giannina, Italy) were cultured in T-75 flasks in Hams F-12 media with Coon's modification (Sigma) supplemented with 10% (v/v) foetal bovine serum, penicillin-streptomycin (10,000 U/mL/10000 μg/mL), G-418 (750 μg/mL), L-glutamine (2 mM) and sodium bicarbonate solution (7.5% v/v). At ˜90% confluence cells were harvested for experiments by detachment with a 2:1 (v/v) mixture of Detachin (BMS Biotechnology) and 0.25% (w/v) trypsin-EDTA. Cells were diluted to a density of 3.5-4.5×10^6 cells/mL with media consisting of CHO-S-SFM II (Sigma), 25 mM HEPES (Sigma) and Soy bean trypsin inhibitor (Sigma).
Whole-Cell Patch Clamp Recording
FRT-TMEM16A cells were whole-cell patch clamped using an automated planar patch clamp system (Qpatch, Sophion). Briefly, once high resistance (GOhm) seals were established between the cells and the planar recording array the patch was ruptured using suction pulses to establish the whole-cell recording configuration of the patch clamp technique. The assay employed the following solutions (all reagents Sigma):
Intracellular solution (mM): N-methyl-D-glucamine 130, CaCl2 18.2, MgCl2 1, HEPES 10, EGTA 10, BAPTA 20, Mg-ATP 2, pH 7.25, 325 mOsm with sucrose.
Extracellular solution (mM): N-methyl-D-glucamine 130, CaCl2 2, MgCl2 1, HEPES 10, pH 7.3, 320 mOsm with sucrose.
The intracellular solution buffers intracellular calcium at levels required to give ˜20% activation of the maximal TMEM16A mediated current (EC20 for calcium ions). Cells were voltage clamped at a holding potential of −70 mV and a combined voltage step (to +70 mV)/ramp (−90 my to +90 mV) was applied at 0.05 Hz. After a period of current stabilisation test compounds, solubilised in 100% (v/v) DMSO and subsequently diluted into extracellular solution, were applied to generate a cumulative concentration response curve. Each concentration of test compound was incubated for 5 minutes before addition of the next concentration. After the final concentration was tested a supramaximal concentration of either a known active positive modulator or the TMEM16A inhibitor, CaCCinhA01 (Del La Fuente et al, 2008) was added to define the upper and lower limits of the assay.
Compound activity was quantified by measuring the increase in current upon compound addition and expressing this as a percentage increase of baseline TMEM16A current level. Percentage increases in current were determined for each concentration and the data plotted as a function of concentration using either the Qpatch software or Graphpad Prism v6.05 providing the concentration which gave 50% of its maximal effect (EC50) and maximum efficacy (percentage of baseline increase).
In FIG. 1, IBL equals baseline current, I[#1] equals the peak current during test compound concentration 1 incubation period and so on.
Peak TMEM16A current at +70 mV was plotted as a function of time over the assay period. Baseline current (IBL) was measured after a period of stabilisation. The increase in current for each compound addition was determined by taking the peak current during the incubation period and subtracting the current from the previous recording period and then expressing this as a percentage of the baseline current. For test compound concentration 1 in FIG. 1 this is:
For each additional concentration tested the increase in current was determined by subtracting the current from the previous incubation period and normalising the baseline value—for test concentration 2 in FIG. 1 this is:
The values for each test concentration were plotted as a cumulative function of concentration e.g. for test concentration two this would be the sum of the peak changes measured during concentration one plus concentration two.

% Potentiation @ 3.33 μM Avg	pEC50	SMILES
100.5%	5.96	O=C(CC12CC3CC(CC(C3)C1)C2)Nc1ccc2[nH]c(CC3CCCCO3)nc2c1 (stereo not shown) [Example 1.1, 2-(1-Adamantyl)-N-[2-(tetrahydropyran-2-ylmethyl)-1H-benzimidazol-5-yl]acetamide]
149.1%	6.09	O=C(CC1C2CC3CC(C2)CC1C3)Nc1ccc2[nH]c(CCc3ccccc3)nc2c1 (stereo not shown) [Example 2.1, 2-(2-Adamantyl)-N-[2-(2-phenylethyl)-1H-benzimidazol-5-yl]acetamide]
194.2%	6.19	COC(c1ccccc1)c1nc2cc(NC(=O)CC3C4CC5CC(C4)CC3C5)ccc2[nH]1 (stereo not shown) [Example 2.2, 2-(2-Adamantyl)-N-[2-[methoxy(phenyl)methyl]-1H-benzimidazol-5-yl]acetamide]
211.2%	6.58	COc1ccccc1Cc1nc2cc(NC(=O)CC3C4CC5CC(C4)CC3C5)ccc2[nH]1 (stereo not shown) [Example 2.3, 2-(2-Adamantyl)-N-[2-[(2-methoxyphenyl)methyl]-1H-benzimidazol-5-yl]acetamide]
165.9%	6.22	O=C(CC1C2CC3CC(C2)CC1C3)Nc1ccc2[nH]c(Cc3ccc(O)cc3)nc2c1 (stereo not shown) [Example 5.1, 2-(2-Adamantyl)-N-[2-[(4-hydroxyphenyl)methyl]-1H-benzimidazol-5-yl]acetamide]
204.2%	6.60	O=C(CC1C2CC3CC(C2)CC1C3)Nc1ccc2[nH]c(Cc3cc(Cl)ccc3O)nc2c1 (stereo not shown) [Example 5.2, 2-(2-Adamantyl)-N-[2-[(5-chloro-2-hydroxy-phenyl)methyl]-1H-benzimidazol-5-yl]acetamide]

The next lines start with the compound.

SMILES	% Potentiation @ 3.33 μM Avg	pEC50
O=C(CC12CC3CC(CC(C3)C1)C2)Nc1ccc2[nH]c(CC3CCCCC3)nc2c1 [Example 1, 2-(1-Adamantyl)-N-[2-(cyclohexylmethyl)-1H-benzimidazol-5-yl]acetamide]	157.3%	6.47
O=C(CC1C2CC3CC(C2)CC1C3)Nc1ccc2[nH]c(Cc3ccccc3)nc2c1 (stereo not shown) [Example 2, 2-(2-Adamantyl)-N-(2-benzyl-1H-benzimidazol-5-yl)acetamide]	183.6%	6.57
CN[C@H](c1ccccc1)c1nc2cc(NC(=O)CC3C4CC5CC(C4)CC3C5)ccc2[nH]1 (stereo partly drawn) [Example 3, 2-(2-Adamantyl)-N-[2-[(R)-methylamino(phenyl)methyl]-1H-benzimidazol-5-yl]acetamide]	108.2%	5.78
O=C(CC12CC3CC(CC(C3)C1)C2)Nc1ccc2[nH]c(Cc3cccnc3Cl)nc2c1 [Example 4, 2-(1-Adamantyl)-N-[2-[(2-chloro-3-pyridyl)methyl]-1H-benzimidazol-5-yl]acetamide]	187.3%	6.14
O=C(CC1C2CC3CC(C2)CC1C3)Nc1ccc2[nH]c(Cc3ccccc3O)nc2c1 (stereo not shown) [Example 5, 2-(2-Adamantyl)-N-[2-[(2-hydroxyphenyl)methyl]-1H-benzimidazol-5-yl]acetamide]	156.9%	7.10
O=C(CC12CC3CC(CC(C3)C1)C2)Nc1ccc2[nH]c(CNC(=O)OCC(F)(F)F)nc2c1 [Example 6, 2,2,2-Trifluoroethyl N-[[5-[[2-(1-adamantyl)acetyl]amino]-1H-benzimidazol-2-yl]methyl]carbamate]	246.3%	5.90
Cc1noc(C)c1-c1cccc(Cc2nc3ccc(NC(=O)CC45CC6CC(CC(C6)C4)C5)cc3[nH]2)c1 [Example 7, 2-(1-Adamantyl)-N-[2-[[3-(3,5-dimethylisoxazol-4-yl)phenyl]methyl]-3H-benzimidazol-5-yl]acetamide]	136.5%	5.80
CC(C)(C)OC(=O)NCc1nc2cc(NC(=O)CC3C4CC5CC(C4)CC3C5)ccc2[nH]1 (stereo not shown) [Example 8, tert-Butyl N-[[5-[[2-(2-adamantyl)acetyl]amino]-1H-benzimidazol-2-yl]methyl]carbamate]	129.2%	6.55
O=C(CC1C2CC3CC(C2)CC1C3)Nc1ccc2[nH]c(OC3CCOC3)nc2c1 (stereo not shown) [Example 9, 2-(2-Adamantyl)-N-(2-tetrahydrofuran-3-yloxy-1H-benzimidazol-5-yl)acetamide]	87.4%	6.08
O=C(NCC1CCCCCC1)c1ccc2oc(Cc3ccccc3O)nc2c1 [Example 10, N-(Cycloheptylmethyl)-2-[(2-hydroxyphenyl)methyl]-1,3-benzoxazole-5-carboxamide]	67.7%	6.91
Nc1c2ccc(NC(=O)CC34CC5CC(CC(C5)C3)C4)cc2nn1Cc1ccccc1O [Example 11, 2-(1-Adamantyl)-N-[3-amino-2-[(2-hydroxyphenyl)methyl]indazol-6-yl]acetamide]	122.7%	7.01
CC(C)c1nc2cc(NC(=O)CC3CCCCC3)ccc2o1 [Example 12, 2-Cyclohexyl-N-(2-isopropyl-1,3-benzoxazol-5-yl)acetamide]	44.6%	5.48
O=C(NCC1CCCCCC1)c1ccc2cn(Cc3ccccc3O)nc2c1 [Example 13, N-(Cycloheptylmethyl)-2-[(2-hydroxyphenyl)methyl]indazole-6-carboxamide]	96.6%	6.70
O=C(CC12CC3CC(CC(C3)C1)C2)Nc1cc2nc(Cc3ccccc3)[nH]c2cn1 [Example 14, 2-(1-Adamantyl)-N-(2-benzyl-3H-imidazo[4,5-c]pyridin-6-yl)acetamide]	59.4%	
O=C(NCC1CCCCCC1)c1ccn2cc(Cc3ccccc3)nc2c1 [Example 15, 2-Benzyl-N-(cycloheptylmethyl)imidazo[1,2-a]pyridine-7-carboxamide]	58.6%	5.98
O=C(CC12CC3CC(CC(C3)C1)C2)Nc1ccc2cn(Cc3ccccc3)nc2c1 [Example 16, 2-(1-Adamantyl)-N-(2-benzylindazol-6-yl)acetamide]	137.3%	6.30
